{"source": "patent US20160263131A1", "about": "“TREATMENT OF HEPATIC FIBROSIS USING AN INHIBITOR OF CBP/CATENIN” (priority 2013, published 2016)", "key": {"NASH mice [1]": {"test_system": "NASH mice", "assay": "HE staining and NAFLD Activity score in NASH mice", "settings": "for NAFLD Activity score (NAS): mean±SD, Vehicle 5.9±1.0, tended to decrease", "procedure": "NASH was induced in 40 male mice by a single subcutaneous injection of 200 μg streptozotocin (Sigma-Aldrich, USA) 2 days after birth and feeding with high fat diet (HFD, 57 kcal % fat, cat# HFD32, CLEA Japan, Japan) after 4 weeks of age. The mice were randomized into 5 groups of 8 mice at 9 weeks of age. Eight male littermates, fed with normal diet (cat# CE-2, CLEA Japan) without streptozotocin treatment, were used for the Normal group.\nThe test substance solution was filled in the osmotic pumps at concentrations determined based on the individual body weight at the start of treatment (day 0). Telmisartan was administered by oral route in a volume of 10 mL/kg body weight.\nTelmisartan was administered once daily at a dose of 10 mg/kg body weight.\nFor HE staining, sections were cut from paraffin blocks of liver tissue prefixed in Bouin's solution and stained with Lillie-Mayer's Hematoxylin (Muto Pure Chemicals, Japan) and eosin solution (Wako Pure Chemical Industries)."}, "α-SMA": {"test_system": "α-SMA", "assay": "Quantitative RT-PCR of liver, α-SMA mRNA, NASH mice", "format": "in vivo, C57BL/6J mice", "settings": "13 weeks of age, mean ± SD", "experimental": "(§1) Total RNA was extracted from liver samples using RNAiso (Takara Bio, Japan) according to the manufacturer's instructions. One μg of RNA was reverse-transcribed using a reaction mixture containing 4.4 mM MgCl2 (Roche, Switzerland), 40 U RNase inhibitor (Toyobo, Japan), 0.5 mM dNTP (Promega, USA), 6.28 μM random hexamer (Promega), 5× first strand buffer (Promega), 10 mM dithiothreitol (Invitrogen, USA) and 200 U MMLV-RT (Invitrogen) in a final volume of 20 μL. The reaction was carried out for 1 hour at 37° C., followed by 5 minutes at 99° C. Real-time PCR was performed using real-time PCR DICE and SYBR premix Taq (Takara Bio). To calculate the relative mRNA expression level, the expression of each gene was normalized to that of reference gene 36B4 (gene symbol: Rplp0). Information of PCR-primer sets and the plate layout was described in Table 1."}, "NASH mice [2]": {"test_system": "NASH mice", "assay": "Liver hydroxyproline content in NASH mice", "format": "in vivo, C57BL/6J mice", "settings": "μg per mg total protein, mean±SD, Vehicle 0.79±0.19, no significant difference", "experimental": "To quantify liver hydroxyproline content, frozen liver samples (35-45 mg) were processed by an alkaline-acid hydrolysis method as follows: the livers were defatted with 100% acetone, dried in the air, dissolved in 2N NaOH at 65° C., and autoclaved at 121° C. for 20 minutes. The lysed samples (400 μL) were acid-hydrolyzed with 400 μL of 6N HCl at 121° C. for 20 minutes, and neutralized with 400 μL of 4N NaOH containing 10 mg/mL activated carbon. AC buffer (2.2M acetic acid/0.48M citric acid, 400 μL) was added to the samples, followed by centrifugation to collect the supernatant. To construct a standard curve of hydroxyproline, serial dilutions of trans-4-hydroxy-Lproline (Sigma-Aldrich) were prepared starting at 16 μg/mL. The prepared samples and standards (each 400 μL) were mixed with 400 μL chloramine T solution (Wako Pure Chemical Industries, Japan) and incubated for 25 minutes at room temperature. The samples were then mixed with Ehrlich's solution (400 μL) and heated at 65° C. for 20 minutes to develop the color. After samples were cooled on ice and centrifuged to remove precipitates, the optical density of each supernatant was measured at 560 nm. The concentrations of hydroxyproline were calculated from the hydroxyproline standard curve. Protein concentrations of liver samples were determined using a BCA protein assay kit (Thermo Fisher Scientific, USA) and used to normalize the calculated hydroxyproline values. Hydroxyproline levels were expressed as μg per mg total protein."}, "Collagen Type 3": {"test_system": "Collagen Type 3", "assay": "Quantitative RT-PCR of liver, Collagen Type 3 mRNA, NASH mice", "format": "in vivo, C57BL/6J mice", "settings": "13 weeks of age, mean ± SD", "experimental": "as §1"}, "[3]": {"assay": "Body weight and general condition of NASH mice", "settings": "for Mean body weight at sacrifice / Mean body weight during the treatment period: NASH mice; for Mean body weight at sacrifice: mean±SD, Vehicle 22.9±2.9, no significant difference; for Mean body weight during the treatment period: versus vehicle group", "experimental": "(§2) The viability, clinical signs and behavior were monitored daily. Body weight was recorded daily before drug administration. […] The animals were sacrificed by exsanguination through direct cardiac puncture under ether anesthesia (Wako Pure Chemical Industries)."}, "NASH mice [4]": {"test_system": "NASH mice", "assay": "Whole blood glucose in NASH mice", "format": "in vivo, C57BL/6J mice", "settings": "mean±SD", "experimental": "(§3) Non-fasting blood glucose was measured in whole blood using Life Check (EIDIA, Japan). For serum biochemistry, blood was collected in polypropylene tubes without anticoagulant and kept at room temperature for 30 minutes, followed by at 4° C. for 1 hour. The blood samples were then centrifuged at 1,000×g for 15 minutes at 4° C. The supernatant was collected and stored at −80° C. until use. Serum ALT and TG levels were measured by FUJI DRI-CHEM 7000 (Fujifilm, Japan)."}, "NASH mice [5]": {"test_system": "NASH mice", "assay": "Liver TG content in NASH mice", "format": "in vivo, C57BL/6J mice", "settings": "mean±SD, Vehicle 58.8±26.9, no significant difference", "experimental": "Liver total lipid-extracts were obtained from right lobes by Folch's method (Folch J. et al, J. Biol. Chem. 1957; 226 (1): 497). The livers were homogenized in chloroform-methanol (2:1, v/v) and incubated overnight at room temperature. After washing with chloroform-methanol-water (8:4:3, v/v/v), the extracts were evaporated to dryness, and dissolved in isopropanol. Liver TG levels were measured by Triglyceride E-test (Wako Pure Chemical Industries). Extracts were diluted 2- to 4-fold in isopropanol when the TG contents exceed the limit of detection."}, "TIMP-1": {"test_system": "TIMP-1", "assay": "Quantitative RT-PCR of liver, TIMP-1 mRNA, NASH mice", "format": "in vivo, C57BL/6J mice", "settings": "13 weeks of age, mean ± SD, n = 8, Vehicle 7.74 ± 4.15, no significant difference", "experimental": "as §1"}, "NASH mice [6]": {"test_system": "NASH mice", "assay": "Serum ALT in NASH mice", "format": "in vivo, C57BL/6J mice", "settings": "mean±SD, Vehicle 58±29, no significant difference", "experimental": "as §3"}, "NASH mice [7]": {"test_system": "NASH mice", "assay": "Liver weight and liver-to-body weight ratio in NASH mice", "format": "in vivo, C57BL/6J mice", "settings": "mean±SD; for Liver-to-body weight ratio: Vehicle 8.1±1.1, no significant difference; for Mean liver weight: Vehicle 1870±418, no significant difference", "experimental": "as §2"}, "[8]": {"settings": "high dose 3 mg/kg/day s.c. infusion 9-13 wks"}, "[9]": {"settings": "low dose 1 mg/kg/day s.c. infusion 9-13 wks"}}, "data": [{"smiles": "C[C@H]1[C@H]2N(C(=O)CN(C)N2C(=O)NCc2ccccc2)[C@@H](Cc2ccc(OP(=O)(O)O)cc2)C(=O)N1Cc1cccc2cccnc12", "note": "[Compound A, 4-(((6S,9S,9aS)-1-(benzylcarbamoyl)-2,9-dimethyl-4,7-dioxo-8-(quinolin-8-ylmethyl)octahydro-1H-pyrazino[2,1-c][1,2,4]triazin-6-yl)methyl)phenyl dihydrogen phosphate]", "values": [{"measurement": "HE-stained liver sections, difference from Vehicle group", "setting": "NASH mice [1]; [8]", "value": "No obvious difference"}, {"measurement": "NAFLD Activity score (NAS)", "setting": "NASH mice [1]; [8]", "value": "5.1±0.6"}, {"measurement": "HE-stained liver sections: lobular inflammation", "setting": "NASH mice [1]; low dose 1 mg/kg/day s.c. infusion 9-13 wks, compared with the Vehicle group", "value": "improved"}, {"measurement": "NAFLD Activity score (NAS)", "setting": "NASH mice [1]; [9]", "value": "4.8±0.9"}, {"measurement": "α-SMA mRNA expression level (relative, normalized to 36B4)", "setting": "α-SMA; high dose 3 mg/kg/day s.c. infusion 9-13 wks, n = 8, Vehicle 3.19 ± 1.81, no significant difference, 3 mg/kg/day", "value": "2.23±1.23"}, {"measurement": "α-SMA mRNA expression level (relative, normalized to 36B4)", "setting": "α-SMA; low dose 1 mg/kg/day s.c. infusion 9-13 wks, n = 8, Vehicle 3.19 ± 1.81, tended to be down-regulated, 1 mg/kg/day", "value": "1.88±0.60"}, {"measurement": "Liver hydroxyproline content", "setting": "NASH mice [2]; [8]", "value": "0.95 ± 0.22", "unit": "µg/mg"}, {"measurement": "Liver hydroxyproline content", "setting": "NASH mice [2]; [9]", "value": "0.90 ± 0.26", "unit": "µg/mg"}, {"measurement": "Collagen Type 3 mRNA expression level (relative, normalized to 36B4)", "setting": "Collagen Type 3; high dose 3 mg/kg/day s.c. infusion 9-13 wks, n = 8, Vehicle 3.09 ± 1.51, tended to be down-regulated, 3 mg/kg/day", "value": "2.22±0.46"}, {"measurement": "Collagen Type 3 mRNA expression level (relative, normalized to 36B4)", "setting": "Collagen Type 3; low dose 1 mg/kg/day s.c. infusion 9-13 wks, n = 8, Vehicle 3.09 ± 1.51, significantly down-regulated, 1 mg/kg/day", "value": "1.93±0.37"}, {"measurement": "Mean body weight at sacrifice", "setting": "[3]; [8]", "value": "23.7 ± 1.1", "unit": "g"}, {"measurement": "Mean body weight during the treatment period", "setting": "[3]; high dose 3 mg/kg/day s.c. infusion", "value": "no significant differences"}, {"measurement": "Mean body weight at sacrifice", "setting": "[3]; [9]", "value": "22.6 ± 2.6", "unit": "g"}, {"measurement": "Mean body weight during the treatment period", "setting": "[3]; low dose 1 mg/kg/day s.c. infusion", "value": "no significant differences"}, {"measurement": "General condition", "setting": "[3]; any of the animals (all groups), throughout the treatment period", "value": "No deterioration"}, {"measurement": "Whole blood glucose (non-fasting)", "setting": "NASH mice [4]; high dose 3 mg/kg/day s.c. infusion 9-13 wks, Vehicle 605±134, tended to increase", "value": "791 ± 54", "unit": "mg/dL"}, {"measurement": "Whole blood glucose (non-fasting)", "setting": "NASH mice [4]; low dose 1 mg/kg/day s.c. infusion 9-13 wks, Vehicle 605±134, no significant difference", "value": "677 ± 36", "unit": "mg/dL"}, {"measurement": "Liver TG content", "setting": "NASH mice [5]; [8]", "value": "67.8 ± 24.0", "unit": "mg/g"}, {"measurement": "Liver TG content", "setting": "NASH mice [5]; [9]", "value": "64.8 ± 25.6", "unit": "mg/g"}, {"measurement": "TIMP-1 mRNA expression level (relative, normalized to 36B4)", "setting": "TIMP-1; high dose 3 mg/kg/day s.c. infusion 9-13 wks, 3 mg/kg/day", "value": "6.73±2.23"}, {"measurement": "TIMP-1 mRNA expression level (relative, normalized to 36B4)", "setting": "TIMP-1; low dose 1 mg/kg/day s.c. infusion 9-13 wks, 1 mg/kg/day", "value": "5.35±2.82"}, {"measurement": "Serum ALT", "setting": "NASH mice [6]; [8]", "value": "49±17", "unit": "U/L"}, {"measurement": "Serum ALT", "setting": "NASH mice [6]; [9]", "value": "45±17", "unit": "U/L"}, {"measurement": "Liver-to-body weight ratio", "setting": "NASH mice [7]; [8]", "value": "8.5±0.6", "unit": "%"}, {"measurement": "Mean liver weight", "setting": "NASH mice [7]; [8]", "value": "2024 ± 159", "unit": "mg"}, {"measurement": "Liver-to-body weight ratio", "setting": "NASH mice [7]; [9]", "value": "8.0±0.8", "unit": "%"}, {"measurement": "Mean liver weight", "setting": "NASH mice [7]; [9]", "value": "1803 ± 219", "unit": "mg"}]}]}
